In the assay the target is T1, Human CXCR3 (N-delta 4) (Homo sapiens, UniProt P49682).
T1 construct: CD8 leader (N); Flag tag; expressed in transfected cells; membranes prepared
T1 sequence (P49682 5-368 limits assumed): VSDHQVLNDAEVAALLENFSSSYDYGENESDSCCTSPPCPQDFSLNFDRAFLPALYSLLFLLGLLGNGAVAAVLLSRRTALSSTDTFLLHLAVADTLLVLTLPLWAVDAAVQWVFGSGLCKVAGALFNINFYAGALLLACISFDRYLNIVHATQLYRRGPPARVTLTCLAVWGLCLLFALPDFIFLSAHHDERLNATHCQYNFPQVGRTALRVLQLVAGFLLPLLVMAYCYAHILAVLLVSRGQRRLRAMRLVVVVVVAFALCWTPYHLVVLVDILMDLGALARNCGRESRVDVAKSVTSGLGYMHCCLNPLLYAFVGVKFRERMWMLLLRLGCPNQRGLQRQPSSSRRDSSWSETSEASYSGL
The assay is described as follows: Human CXCR3 (N-delta 4) scintillation proximity assay (SPA), [125I] IP-10 binding to Ba/F3-hCXCR3 membranes. The conditions noted are these: IC50 rating; 25 pM [125I] IP-10, membranes of Ba/F3 cells expressing human CXCR3 (N-delta 4). An excerpt: The inventive compounds can readily be evaluated to determine activity at The CXCR3 receptors by known methods, such as, for example, Development of Human CXCR3 (N-delta 4) Binding Assay.
Cloning and Expression of Human CXCR3 (N-delta 4):
The DNA encoding human CXCR3 was cloned by PCR using human genomic DNA (Promega, Madison, Wis.) as a template. The PCR primers were designed based on the published sequence of human orphan receptor GPR9 (1) with incorporated restriction sites, a Kozak consensus sequence, CD8 leader and Flag tag. The PCR product was subcloned into the mammalian expression vector pME18Sneo, a derivative of the SR-alpha expression vector (designated as pME18Sneo-hCXCR3 (N-delta 4).
IL-3-dependent mouse pro-B cells Ba/F3 were transfected by electroporation in 0.4 ml Dulbecco's PBS containing 4×10^6 cells with 20 μg of pME18Sneo-hCXCR3 (N-delta 4) plasmid DNA. Cells were pulsed at 400 Volts, 100 OHMs, 960 μFd. The transfected cells were under selection with 1 mg/ml G418 (Life Technologies, Gaithersburg, Md.). G418-resistant Ba/F3 clones were screened for CXCR3 expression by specific binding of [^125I] IP-10 (NEN Life Science Products, Boston, Mass.).
Preparation of Ba/F3-hCXCR3 (N-delta 4) Membranes
Ba/F3 cells expressing human CXCR3 (N-delta 4) were pelleted and resuspended in the lysis buffer containing 10 mM HEPES, pH 7.5 and Complete® protease inhibitors (1 tablet per 100 ml) (Boehringer Mannheim, Indianapolis, Ind.) at a cell density of 20×10^6 cells per ml. After 5 minutes incubation on ice, cells were transferred to 4639 cell disruption bomb (Parr Instrument, Moline, Ill.) and applied with 1,500 psi of nitrogen for 30 minutes on ice. Large cellular debris was removed by centrifugation at 1,000×g. Cell membrane in the supernatant was sedimented at 100,000×g. The membrane was resuspended in the lysis buffer supplemented with 10% sucrose and stored at −80° C. Total protein concentration of the membrane was determined by BCA method from Pierce (Rockford, Ill.).
Human CXCR3 (N-delta 4) Scintillation Proximity Assay (SPA)
For each assay point, 2 μg of membrane was preincubated for 1 hr with 300 μg wheat germ agglutinin (WGA) coated SPA beads (Amersham, Arlington Heights, Ill.) in the binding buffer (50 mM HEPES, 1 mM CaCl2, 5 mM MgCl2, 125 mM NaCl, 0.002% NaN3, 1.0% BSA) at room temperature. The beads were spun down, washed once, resuspended in the binding buffer and transferred to a 96-well Isoplate (Wallac, Gaithersburg, Md.). 25 pM of [^125I] IP-10 with tested compounds in a series of titration were added to start the reaction. After 3 hr reaction at room temperature, the amount of [^125I] IP-10 bound to the SPA beads was determined with a Wallac 1450 Microbeta counter.
The Ki values for the various example compounds of the present invention are given in the afore-mentioned Table 1. From these values, it would be apparent to the skilled artisan that the compounds of the invention have excellent utility CXCR3 antagonists.
Background: In a scintillation proximity assay essentially only radioactivity close to the scintillant gives light.

These results are taken from patent US7879838B2, “Heteroaryl substituted pyrazinyl-piperazine-piperidines with CXCR3 antagonist activity” (Schering Corporation, priority 2005, dated 2011).

Molecules are shown by their SMILES. pIC50: −log10 of the molar value.

What is called pIC50 is the IC50 on a negative log10 scale, so that one unit is a factor of ten. The low end stands for a large IC50, the high end for a small IC50. In the case of `CC[C@H]1CN(c2nc(N)c(C(=O)NCCO)nc2Cl)CCN1C1CCN(C(=O)c2ccc(Cl)nc2NC)CC1` [compound 91], the pIC50 was below 7.00.
For the compound `CC[C@H]1CN(c2nc(N)c(C(=O)NCCO)nc2Cl)CCN1C1CCN(Cc2ccc(N3CCOCC3)nc2Cl)CC1` [compound 92], the pIC50 is below 7.00.
For the compound `CC[C@H]1CN(c2nc(N)c(C(=O)NC3CCC(O)CC3)nc2Cl)CCN1C1CCN(C(=O)c2ccc(Cl)nc2N)CC1` (stereo partly shown) [compound 93], the pIC50 is below 7.00.
On to `CC[C@H]1CN(c2nc(N)c(C(=O)NCCO)nc2Cl)CCN1C1CCN(Cc2cc3ccccc3nc2Cl)CC1` [compound 94], for which the pIC50 is below 7.00.
Then `CC[C@H]1CN(c2nc(N)c(C(=O)NC(=N)N3CCCC3)nc2Cl)CCN1C1CCN(C(=O)c2ccc(Cl)nc2N)CC1` [compound 95], with below 7.00.
Then `CC[C@H]1CN(c2nc(N)c(C(N)=O)nc2Cl)CCN1C1CCN(C(=O)c2cc(F)c(N)nc2Cl)CC1` [compound 96], with below 7.00.
The same measure for `CC[C@H]1CN(c2nc(N)c(C(=O)NCCO)nc2Cl)CCN1C1CCN(Cc2ccc(NC3CC3)nc2Cl)CC1` [compound 97]: below 7.00.
For `CC[C@H]1CN(c2nc(N)c(C(=O)NCCCN(C)C)nc2Cl)CCN1C1CCN(C(=O)c2ccc(Cl)nc2N)CC1` [compound 98], the pIC50 was below 7.00.
Then `CC[C@H]1CN(c2ncc(C(=O)O)nc2Cl)CCN1C1CCN(C(=O)c2ccc(Cl)nc2N)CC1` [compound 99], with below 7.00; and `CC[C@H]1CN(c2nc(N)c(C(=O)Nc3cc(O)[nH]n3)nc2Cl)CCN1C1CCN(C(=O)c2ccc(Cl)nc2N)CC1` [compound 100], with below 7.00.
As for `CC[C@H]1CN(c2nc(N)c(C(=O)NC(=N)n3cccn3)nc2Cl)CCN1C1CCN(C(=O)c2ccc(Cl)nc2N)CC1` [compound 101], the negative-log IC50 (pIC50) is below 7.00.
For `CC[C@H]1CN(c2nc(N)c(C(=O)NN)nc2Cl)CCN1C1CCN(C(=O)c2c(C)noc2C)CC1` [compound 102], the pIC50 is below 7.00.
Then `CC[C@H]1CN(c2nc(N)c(C(=O)NCCO)nc2Cl)CCN1C1CCN(C(=O)c2ccc(C)nc2O)CC1` [compound 103], with below 7.00.
The same measure for `CC[C@H]1CN(c2nc(N)c(C(=O)NCCO)nc2Cl)CCN1C1CCN(Cc2ccc3nccn3c2)CC1` [compound 104]: below 7.00.
The same measure for `CC[C@H]1CN(c2nc(NCC3CC3)c(C(=O)OC)nc2Cl)CCN1C1CCN(C(=O)c2ccc(Cl)nc2N)CC1` [compound 105]: below 7.00; for `CC[C@H]1CN(c2nc(N)c(C(=O)NCCO)nc2Cl)CCN1C1CCN(C(=O)c2ccc(C(N)=O)nc2N)CC1` [compound 106]: below 7.00.
`CC[C@H]1CN(c2nc(N)c(C(N)=O)nc2Cl)CCN1C1CCN(C(=O)c2ccc(-n3cncn3)nc2)CC1` [compound 107] gave a pIC50 below 7.00.
Then `CC[C@H]1CN(c2nc(N)c(C(=O)NC)nc2Cl)CCN1C1CCN(Cc2cc(Cl)nc(Cl)c2)CC1` [compound 108], with below 7.00.
Then `CC[C@H]1CN(c2nc(N)c(C(=O)O)nc2Cl)CCN1C1CCN(C(=O)c2ccc(Cl)nc2N)CC1` [compound 109], with below 7.00.
As to `CC[C@H]1CN(c2nc(N)c(C(=O)NC)nc2Cl)CCN1C1CCN(C(=O)c2ccnc(Cl)c2)CC1` [compound 110], the pIC50 is below 7.00.
As to `CC[C@H]1CN(c2nc(N)c(C(=O)NN)nc2Cl)CCN1C1CCN(S(=O)(=O)c2c(C)noc2C)CC1` [compound 111], the negative logarithm of the IC50 (pIC50) was below 7.00.
The same measure for `CC[C@H]1CN(c2nc(N)c(C(=O)NC)nc2Cl)CCN1C1CCN(C(=O)c2cnc(C)cn2)CC1` [compound 112]: below 7.00; for `CC[C@H]1CN(c2nc(N)c(C(N)=O)nc2Cl)CCN1C1CCN(CC2COc3ccccc3O2)CC1` (stereo partly shown) [compound 113]: below 7.00; for `CC[C@H]1CN(c2nc(N)c(C(N)=O)nc2Cl)CCN1C1CCN(C(=O)c2ccc(Cl)n3ccnc23)CC1` [compound 114]: below 7.00.
Then `CC[C@H]1CN(c2nc(N)c(C(N)=O)nc2Cl)CCN1C1CCN(C(=O)c2ncc(C)nc2N)CC1` [compound 115], with below 7.00; and `CC[C@H]1CN(c2nc(N)c(C(=O)NC)nc2Cl)CCN1C1CCN(C(=O)c2cc(Cl)nc(Cl)c2)CC1` [compound 116], with below 7.00.
Then `CC[C@H]1CN(c2nc(N)c(C(=O)NCCO)nc2Cl)CCN1C1CCN(C(=O)c2nccnc2N)CC1` [compound 117], with below 7.00; and `CC[C@H]1CN(c2ncc(C(=O)NC(C)C)nc2Cl)CCN1C1CCN(C(=O)c2ccc(Cl)nc2N)CC1` [compound 118], with above 7.60; and `CC[C@H]1CN(c2ncc(C(=O)NC3CC3)nc2Cl)CCN1C1CCN(C(=O)c2ccc(Cl)nc2N)CC1` [compound 119], with above 7.60.
Regarding `CC[C@H]1CN(c2ncc(C(=O)NC(C)(C)C)nc2Cl)CCN1C1CCN(C(=O)c2ccc(Cl)nc2N)CC1` [compound 120], the pIC50 was above 7.60.
Then `CC[C@H]1CN(c2ncc(C(N)=O)nc2C(F)(F)F)CCN1C1CCN(C(=O)c2ccc(Cl)nc2N)CC1` [compound 121], with above 7.60; and `CC[C@H]1CN(c2ncc(C(=O)NC)nc2Cl)CCN1C1CCN(C(=O)c2ccc(Cl)nc2N)CC1` [compound 122], with above 7.60; and `CC[C@H]1CN(c2ncc(C(=O)NC(C)C)nc2C)CCN1C1CCN(C(=O)c2ccc(Cl)nc2N)CC1` [compound 123], with above 7.60.
Then `CC[C@H]1CN(c2ncc(C(=O)NCCO)nc2C)CCN1C1CCN(C(=O)c2ccc(Cl)nc2N)CC1` [compound 124], with above 7.60; and `CC[C@H]1CN(c2ncc(C(=O)NCCO)nc2Cl)CCN1C1CCN(C(=O)c2ccc(Cl)nc2N)CC1` [compound 125], with above 7.60; and `CCNC(=O)c1cnc(N2CCN(C3CCN(C(=O)c4ccc(Cl)nc4N)CC3)[C@@H](CC)C2)c(C)n1` [compound 126], with above 7.60.
The same measure for `CC[C@H]1CN(c2ncc(C(N)=O)nc2C)[C@H](C)CN1C1CCN(C(=O)c2ccc(Cl)nc2N)CC1` [compound 128]: above 7.60; for `CC[C@H]1CN(c2ncc(C(N)=O)nc2C)CCN1C1CCN(C(=O)c2ccc(Cl)nc2N)CC1` [compound 129]: above 7.60; for `CC[C@H]1CN(c2nc(N)c(C(=O)Nc3ccncc3)nc2Cl)CCN1C1CCN(C(=O)c2ccc(Cl)nc2N)CC1` [compound 130]: above 7.60.
`CC[C@H]1CN(c2nc(N)c(C(=O)NC)nc2Cl)CCN1C1CCN(C(=O)c2ccc(OC)nc2N)CC1` [compound 131] had a pIC50 of 7.00 to 7.60.
The same measure for `CC[C@H]1CN(c2nc(N)c(C(=O)Nc3cc(C)[nH]n3)nc2Cl)CCN1C1CCN(C(=O)c2ccc(Cl)nc2N)CC1` [compound 132]: 7.00 to 7.60; for `CC[C@H]1CN(c2nc(N)c(C(=O)NCCO)nc2Cl)CCN1C1CCN(C(=O)c2ccc(OC)nc2N)CC1` [compound 133]: 7.00 to 7.60; for `CC[C@H]1CN(c2nc(N)c(C(=O)NNC(C)=O)nc2Cl)CCN1C1CCN(C(=O)c2ccc(Cl)nc2N)CC1` [compound 134]: 7.00 to 7.60.
The compound `CC[C@H]1CN(c2nc(N)c(C(N)=O)nc2Cl)CCN1C1CCN(C(=O)c2ccc(OC)nc2N)CC1` [compound 135] showed a pIC50 of 7.00 to 7.60.
The same measure for `CC[C@H]1CN(c2ncc(C(N)=O)nc2C)CCN1C1CCN(C(=O)c2ccc(C)nc2N)CC1` [compound 136]: below 7.00; for `CC[C@H]1CN(c2nc(N)c(C(=O)N(C)OC)nc2Cl)CCN1C1CCN(C(=O)c2ccc(Cl)nc2N)CC1` [compound 137]: below 7.00.
